Assay [1] relates to Hepatitis C virus. The assay is described as follows: Antiviral activity against HCV1b assessed as inhibition of viral replication by cell based 384 well format assay. In kind it is functional, Hepacivirus hominis. As to conditions: genotype 1b.
The subject of assay [2] is Hepatitis C virus. The assay is described as follows: Antiviral activity against HCV1a assessed as inhibition of viral replication by cell based 384 well format assay. In kind it is functional, Hepacivirus hominis. As to conditions: subtype 1a.
The nature of assay [3]: Inhibition of HCV1b NS5B polymerase. The arrangement: species or system Hepatitis C virus subtype 1b.
In assay [4] the test system is Hepatitis C virus. Kind of assay: Antiviral activity against HCV1b in Rluc cells assessed as TP level per million cells after 24 hrs by liquid chromatography. In kind it is functional, Hepacivirus hominis, genotype 1b.

In general, EC50 refers to the midpoint of the concentration-response curve. Turning to `C[C@@]1(O)[C@H](O)[C@@H](CO)O[C@@]1(C#N)c1ccc2c(N)ncnn12`, the EC50 in the assay on Hepatitis C virus [1] and with Hepatitis C virus [2] was over 89000 nM each time.

In general, IC50 refers to the concentration that inhibits the measured activity by half. `C[C@@]1(O)[C@H](O)[C@@H](CO)O[C@@]1(C#N)n1ccc(N)nc1=O`: the IC50 in assay [3] was 17700 nM. The EC50 with Hepatitis C virus [1] is over 89000 nM; with Hepatitis C virus [2], 76000 nM.

With `C[C@@]1(O)[C@H](O)[C@@H](CO)O[C@@]1(C#N)n1ccc(=O)[nH]c1=O`, in assay [3], the IC50 came out at 27000 nM. In addition, the EC50 in the assay on Hepatitis C virus [1] and in the assay on Hepatitis C virus [2] was over 89000 nM in each case.

For the compound `CC(C)OC(=O)[C@H](C)N[P@](=O)(OC[C@H]1O[C@@](C#N)(n2ccc(N)nc2=O)[C@](C)(O)[C@@H]1OC(=O)C(C)C)Oc1ccccc1`, the 50% effective concentration (EC50) in the assay with Hepatitis C virus [1] is 600 nM; in the assay with Hepatitis C virus [2], 250 nM.

Regarding `C[C@@]1(O)[C@H](O)[C@@H](CO)O[C@H]1n1ccc(N)nc1=O`, the IC50 in assay [3] was 1670 nM. The EC50 came to 2800 nM in the assay on Hepatitis C virus [1] and 2500 nM with Hepatitis C virus [2].

With `CC(C)OC(=O)[C@H](C)N[P@+]([O-])(OC[C@H]1O[C@@](C#N)(c2ccc3c(N)ncnn23)[C@](C)(O)[C@@H]1OC(=O)C(C)C)Oc1ccccc1` [GS-6620], the EC50 in the assay with Hepatitis C virus [1] was found to be 240 nM; in the assay on Hepatitis C virus [2] it was 94 nM. In the assay with Hepatitis C virus [4], the Activity is listed as 40 pmol.

The record behind these values is ChEMBL document CHEMBL3352022, “Preparation and biological evaluation of 1'-cyano-2'-C-methyl pyrimidine nucleosides as HCV NS5B polymerase inhibitors” (Bioorg Med Chem Lett, 2014).
